Measurements taken from patent US20250213547A1, “METHODS OF TREATING NEUROLOGICAL DISEASES” (priority 2022, published 2025).
≈ marks a conversion by molar mass, not a printed value.

How the values were obtained:
[1] = molecular target: T1, CH24H (Homo sapiens, UniProt Q9Y6A2); assay: PK/PD (PK/OE/24HC) turnover modeling; conditions: for BL / IC50 / IGAM / Imax / KOUT: ELEKTRA subjects; for BL: 24HC baseline
T1 construct: from tissue; host or cells: brain of living human trial subjects (in vivo)
Description: Similar to the PK model, the PK/PD model was developed as a population mixed-effects model and incorporated the individual PK parameters from the final PK population model. A turnover model was used to characterize changes in plasma 24HC overtime. Plasma 24HC was considered to be at steady-state baseline (BL) before the start of treatment. […] PK/PD covariates were screened in a procedure similar to the PK covariates. In the final PK/PD model, two covariates, A1-AGLP and body weight affected baseline 24HC.
The PK/PD analysis dataset consisted of 2165 24HC observations from 3 phase I trials. Four subjects from the ELEKTRA study with large IC50 estimates were excluded from the dataset. Additionally, 42 individuals with large conditional weighted residuals were excluded from the dataset. The final dataset contained 2107 24HC observations from 248 subjects. Table 26 summarizes the modeling dataset with reference to example numbers, respective clinical trial ID, subject numbers, regimen, and number of observations and doses. Tables 27 and 28 summarize the categorical covariates used in PK/OE/24HC analysis from the entire dataset and the ELEKTRA study subset, respectively.
Tables 29 and 30 summarize the mean continuous variables used in the PK/OE/24HC covariate analysis from the entire PK/OE/24HC population studied and the ELEKTRA subset, respectively. In addition to the shared variables, the PK/PD dataset contained the individual final estimates of the population PK model parameters (IND_ALAG1, IND_KA, IND_CL, IND_V2, IND_Q, IND_V3, and IND_F1). Subjects without individual PK parameter estimates (e.g. subjects from the placebo arms) were assigned to the respective geometric mean of the estimated individual parameter values.
A turnover model was used to describe changes in 24HC concentration over time. […] The following formula estimates change in 24HC: […]
The indirect exposure effect (EFF) was estimated by an Imax model:
The effect-site concentration was implemented as a delayed equilibrium with the plasma/brain transit rate parameter (KPLBR):
The scaling parameter KPLBR was previously estimated in a competitive enzyme occupancy model derived from PET brain imaging data (NCT02497235, Table 19). Parameters derived from this base model were fixed at their previous final PK population estimates derived from example 12. However, no random effects could be estimated without enzyme occupancy data. FIG. 26 depicts the basic model structure in relation to observed and unobserved data. There was a strong growth-related increase in baseline 24HC levels, which was only observed in young subjects.
The following variables were screened by forward inclusion, backward exclusion F-tests: • Growth/maturity: Weight, BMI, and age • Protein binding: Albumin (ALB), A1-AGLP • Liver function: AST, ALT, GGT, and ALP • Kidney function: Creatinine clearance (CRCL), eGFR • Categorical variables: Asian, sex. Ethnicity, and disease type

[2] = test system: plasma 24HC; assay: Multiple rising dose study: pharmacodynamics, plasma 24HC; format: in vivo, human
Protocol: An 8 mL blood sample was collected to obtain plasma 24HC levels for PD analysis on day 1 and day 14 at 30 minutes pre-dose and at 30 minutes, and 1, 2, 4, 8, 12, 16, and 24 hours post-dose. The mean 24-hour area under the effect curve (AUEC24), presented as the percent change in 24HC from baseline, for doses 100, 300, and 400 mg were −46.8, −61.9, and −62.7, respectively. […] Example 7 below further describes the study's PD protocol and trial results, including safety (example 8).
Plasma 24HC collection and measurement were as described in example 5, with the exception that the 30—minute pre-dose sampling occurred on day 1, 7, 12, 13 and 14, and the 24-hour sampling occurred on day 1 and 14. Assay quality control measures, parameter and statistical analyses were performed as described in example 5. […] Subjects in the 300 mg BID and 600 mg QD cohorts discontinued treatment after day 10 due to some subjects experiencing adverse effects.

T1 sequence (Q9Y6A2 whole entry): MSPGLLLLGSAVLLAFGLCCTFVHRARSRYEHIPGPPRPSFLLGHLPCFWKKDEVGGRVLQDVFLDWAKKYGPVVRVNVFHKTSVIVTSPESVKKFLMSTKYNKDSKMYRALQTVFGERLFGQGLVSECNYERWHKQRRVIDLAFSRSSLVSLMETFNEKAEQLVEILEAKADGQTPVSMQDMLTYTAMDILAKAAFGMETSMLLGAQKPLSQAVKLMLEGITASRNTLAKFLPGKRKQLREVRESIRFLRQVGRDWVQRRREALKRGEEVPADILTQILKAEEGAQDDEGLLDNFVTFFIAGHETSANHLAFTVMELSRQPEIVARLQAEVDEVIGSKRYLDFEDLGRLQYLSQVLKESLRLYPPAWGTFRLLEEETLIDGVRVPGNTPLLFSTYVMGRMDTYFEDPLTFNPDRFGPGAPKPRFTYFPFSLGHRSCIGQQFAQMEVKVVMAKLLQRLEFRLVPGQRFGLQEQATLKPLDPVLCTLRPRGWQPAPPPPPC

SMILES: O=C(c1cccnc1-c1ccncc1)N1CCC(O)(Cc2ccccc2)CC1 [soticlestat]
- KOUT typical value ([1]; 24HC elimination rate): 0.0215 h⁻¹
- BL ([1]; Mean): 96.4 ng/mL
- BL ([1]; Median): 84.775 ng/mL
- BL ([1]; Range): 31.63 to 303.45 ng/mL
- IC50 ([1]; Mean): 0.0128 µg/mL (≈ 0.0343 µM)
- IGAM ([1]; Mean): 0.83
- Imax ([1]; Mean): 93.5%
- KOUT ([1]; Mean): 0.022 h⁻¹
- IC50 ([1]; Median): 0.01006 µg/mL (≈ 0.0269 µM)
- IGAM ([1]; Median): 0.83
- Imax ([1]; Median): 93.5%
- KOUT ([1]; Median): 0.022 h⁻¹
- IC50 ([1]; Range): 0.00217 to 0.076 µg/mL
- IGAM ([1]; Range): 0.83-0.83
- Imax ([1]; Range): 93.5-93.5%
- KOUT ([1]; Range): 0.022-0.022 1/h
- maximum inhibition of 24HC synthesis (Imax), typical value ([1]; PK/PD turnover model): 93%
- IC50 for 24HC, typical value ([1]; PK/PD turnover model, soticlestat concentration): 0.0101 µg/mL
- 24HC Baseline (BL): age cut-off ([1]; covariate on BL): 21.2 y
- 24HC Baseline (BL) typical value ([1]; final PK/OE/24HC model): 50.5 ng/mL
- Enzyme Occupancy: KPLBR plasma-brain rate ([1]; final PK/OE/24HC model, fixed): 0.254 h⁻¹
- plasma/brain scaling parameter KPLBR (fixed) ([1]; from PET enzyme occupancy model): 0.254 h⁻¹
- Imax typical value ([1]; maximum inhibition of 24HC): 93.5%
- 24HC AUEC24, mean, percent change from baseline (day −1) ([2]; 100 mg QD day 1): −8.15%
- 24HC E24, mean, percent change from baseline (day −1) ([2]; 100 mg QD day 1): −20.9%
- 24HC AUEC24, mean, percent change from baseline (day −1) ([2]; 100 mg QD day 14): −46.8%
- 24HC E24, mean, percent change from baseline (day −1) ([2]; 100 mg QD day 14): −49.1%
- 24HC AUEC24, mean, percent change from baseline (day −1) ([2]; 300 mg BID day 1): −6.90%
- 24HC E24, mean, percent change from baseline (day −1) ([2]; 300 mg BID day 1): −10.5%
- 24HC AUEC24, mean, percent change from baseline (day −1) ([2]; 300 mg QD day 1): −12.7%
- 24HC E24, mean, percent change from baseline (day −1) ([2]; 300 mg QD day 1): −22.4%
- 24HC AUEC24, mean, percent change from baseline (day −1) ([2]; 300 mg QD day 14): −61.9%
- 24HC E24, mean, percent change from baseline (day −1) ([2]; 300 mg QD day 14): −63.8%
- 24HC AUEC24, mean, percent change from baseline (day −1) ([2]; 400 mg QD day 1): −11.7%
- 24HC E24, mean, percent change from baseline (day −1) ([2]; 400 mg QD day 1): −28.4%
- 24HC AUEC24, mean, percent change from baseline (day −1) ([2]; 400 mg QD day 14): −62.7%
- 24HC E24, mean, percent change from baseline (day −1) ([2]; 400 mg QD day 14): −65.6%
- 24HC AUEC24, mean, percent change from baseline (day −1) ([2]; 600 mg QD day 1): −14.0%
- 24HC E24, mean, percent change from baseline (day −1) ([2]; 600 mg QD day 1): −30.6%
